Biological target: T1, renin (Homo sapiens, UniProt P00797)
T1 sequence (P00797 67-406): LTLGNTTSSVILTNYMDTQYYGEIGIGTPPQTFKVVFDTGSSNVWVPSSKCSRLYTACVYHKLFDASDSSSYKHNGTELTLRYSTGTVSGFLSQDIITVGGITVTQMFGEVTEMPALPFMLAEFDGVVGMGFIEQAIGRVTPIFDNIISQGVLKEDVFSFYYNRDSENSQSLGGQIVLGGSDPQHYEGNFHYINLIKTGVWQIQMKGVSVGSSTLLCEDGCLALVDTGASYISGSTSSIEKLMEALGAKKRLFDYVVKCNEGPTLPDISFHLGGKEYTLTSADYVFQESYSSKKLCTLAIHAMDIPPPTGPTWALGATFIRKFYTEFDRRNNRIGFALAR
Assay: in vitro renin inhibitory activity, standard radioimmunoassay for angiotensin I
Assay type: biochemical
Description: The effectiveness of the aforementioned compounds is determined by a test for in vitro renin inhibitory activity. This activity is determined by a standard radioimmunoassay for angiotensin I. In this assay the enzyme, renin, incubated for two hours at 37° in the presence of a substrate, angiotensinogen, generates the product, angiotensin I. Test compounds are added to the incubation mixture.

Compound | IC50 [µM]
CC(C)C[C@H](NC(=O)C[C@H](O)[C@H](CC1CCCCC1)NC(=O)CC1OC1[C@H](Cc1ccccc1)NC(=O)OC(C)(C)C)C(=O)NCc1cccc(CNC(=O)OCc2ccccc2)c1 (stereo partly shown) [Example 13] | 2.6
CCOC(=O)C[C@H](O)[C@H](CC(C)C)NC(=O)[C@@H](NC[C@@H](NC(=O)CC(C)C)C(C)C)C(C)C [Example 53, Heptanoic acid, 3-hydroxy-6-methyl-4-[[3-methyl-2-[[3-methyl-2-[(3-methyl-1-oxobutyl)amino]butyl]amino]-1-oxobutyl]amino]-, ethyl ester, [3S-[3R*,- 4R*[R*[R*[(R*)]]]]-] | 28
CC(C)CC(=O)N[C@@H](Cc1ccccc1)C(=O)N[C@@H](Cc1c[nH]cn1)C(=O)N[C@@H](CC1CCCCC1)C(O)CCC(=O)NCc1cccc(CN)c1 (stereo partly shown) [Example 80] | 2.1
CC(C)CC(=O)N[C@H](CN[C@H](C(=O)N[C@@H](CC(C)C)[C@@H](O)CC(=O)NCc1ccccc1)C(C)C)C(C)C [Example 54, IVA-VAL[CH2 NH]VAL-STA-NHCH2 Ph] | 30
CC(C)C[C@H](NC(=O)C[C@H](O)[C@H](CC(C)C)NC(=O)C/C=C/[C@H](Cc1c[nH]c2ccccc12)NC(=O)OC(C)(C)C)C(=O)NCc1ccccc1 [Example 7, [4S-(4R*,8R*,9R*,13E,15R*)]-8-hydroxy-15-(1H-indol-3-ylmethyl)-4,9-bis(2-methylpropyl)-3,6,11-trioxo-1-phenyl-2,5,10-16-tetraazaheptadec-13-en-17-oic acid, 1,1-dimethylethyl ester] | 20
CC(C)CC(COC(C(=O)NC(CC(C)C)C(O)CC(=O)NC(C)C(=O)NC(CC(C)C)C(O)CC(=O)NCc1ccccc1)c1ccccc1)NC(=O)OC(C)(C)C (stereo not shown) [Example 75, 10,18-dihydroxy-14-methyl-3,9,17-tris-(2-methylpropyl)-7,12,15,20-tetraoxo-6,22-diphenyl-5-oxa-2,8,13,16,21-pentaazadocosanoic acid, 1,1-dimethylethyl ester] | 20
CC(C)CC(=O)NC(Cc1ccccc1)C[S+]([O-])C(Cc1ccccc1)C(=O)NC(CC(C)C)C(O)CC(=O)NC(C)C(=O)NC(CC(C)C)C(O)CC(=O)NCc1ccccc1 (stereo not shown) [Example 40, 13,21-dihydroxy-2,17-dimethyl-12,20-bis(2-methylpropyl)-4,10,15,18-tetraoxo-N,6,9-tris(phenylmethyl)-8-thia-5,11,16,19-tetraazatricosan-23-amide-8-oxide] | 2
CC(C)C[C@H](NC(=O)C[C@H](O)[C@H](CC1CCCCC1)NC(=O)CCC[C@H](Cc1ccccc1)NC(=O)OC(C)(C)C)C(=O)NCc1cccc(CN)c1 [Example 36] | 63
CC(C)CC(NC(=O)CC(O)C(CC(C)C)NC(=O)/C=C/C(O)C(Cc1ccccc1)NC(=O)OC(C)(C)C)C(=O)NCc1ccccc1 (stereo not shown) [Example 19, (E)-8,14-dihydroxy-4,9-bis(2-methylpropyl)-3,6,11-trioxo-1-phenyl-15-(phenylmethyl)-2,5,10,16-tetraazaheptadec-12-en-17-oic acid, 1,1-dimethylethyl ester] | 2.1
CC(C)CC(=O)N[C@@H](Cc1ccccc1)C(=O)N[C@@H](Cc1c[nH]cn1)C(=O)NC(CC(C)C)C(O)CC(CC(C)C)C(=O)NCc1ccccc1 (stereo partly drawn) [Example 76, L-Histidinamide, N-(3-methyl-1-oxobutyl)-L-phenylalanyl-N-[2-hydroxy-6-methyl-1-(2-methylpropyl)-4-[[(phenylmethyl)amino]carbonyl]heptyl]] | 0.74
CC(C)CC(=O)N[C@@H](Cc1ccccc1)C(=O)N[C@@H](Cc1c[nH]cn1)C(=O)N[C@H](CN[C@@H](CC(C)C)C(=O)NCc1ccccc1)CC1CCCCC1 [Example 70, L-histidinamide, N-(3-methyl-1-oxobutyl)-L-phenylalanyl-N-[1-cyclohexylmethyl]-2-[[3-methyl-1-[[(phenylmethyl)amino]carbonyl]butyl]amino]ethyl]-, [S-(R*,R*)]] | 0.28
CC(C)C[C@@H](CN(Cc1ccccc1)C(=O)OCc1ccccc1)NC(=O)C[C@H](O)[C@H](CC(C)C)NC(=O)[C@@H](NC(=O)[C@H](Cc1ccccc1)NC(=O)OC(C)(C)C)C(C)C [Example 56, l-valinamide.N-[(1,1-dimethylethoxy)carbonyl]-L-phenylalanyl-N-[2-hydroxy-4-[[3-methyl-1-[[[(phenylmethoxy)carbonyl](phenylmethyl)amino]methyl]butyl]amino]-1-(2-methylpropyl)-4-oxobutyl]-, [2S-[1R*,2R*,4R*)]]-] | 16
CC(C)CC(CC(=O)[C@H](CC1CCCCC1)NC(=O)OC(C)(C)C)C(=O)N[C@@H](CC(C)C)[C@@H](O)CC(=O)N[C@@H](CC(C)C)C(=O)NCc1ccccc1 (stereo partly shown) [Example 51] | 26
CC(C)C[C@H](NC(=O)C[C@H](O)[C@H](CC1CCCCC1)NC(=O)/C=C/C(O)[C@H](Cc1ccccc1)NC(=O)OC(C)(C)C)C(=O)NCc1cccc(CNC(=O)OCc2ccccc2)c1 (stereo partly shown) [Example 21] | 0.47
CC(C)C[C@H](NC(=O)C[C@H](O)[C@H](CC1CCCCC1)NC(=O)CCC(O)[C@H](Cc1ccccc1)NC(=O)OC(C)(C)C)C(=O)NCc1cccc(CN)c1 (stereo partly shown) [Example 24] | 0.022
CC(C)CC(=O)N[C@@H](Cc1ccccc1)C(=O)N[C@@H](Cc1c[nH]cn1)C(=O)N[C@H](CN[C@@H](CC(C)C)C(=O)NCc1ccccc1)CC(C)C [Example 65, L-histidinamide, N-(3-methyl-1-oxobutyl)-L-phenylalanyl-N-[3-methyl-1-[[[3-methyl-1-[[(phenylmethyl)amino]carbonyl]butyl]amino]methyl]butyl], [S-(R*,R*)]] | 7.7
CC(C)CC(NC(=O)CC(O)C(CC(C)C)NC(=O)C(Cc1ccccc1)SCC(Cc1ccccc1)NC(=O)CCCC(=O)O)C(=O)NCc1ccccc1 (stereo not shown) [Example 44, 8-hydroxy-4,9-bis(2-methylpropyl)-3,6,11,17-tetraoxo-1-phenyl-12,15-bis(phenylmethyl)-13-thia-2,5,10,16-tetraazaheneicosan-21-oic acid] | 30
CC(C)C[C@H](NC(=O)C[C@H](O)[C@H](CC(C)C)NC(=O)[C@H](Cc1cncn1COCc1ccccc1)NC[C@H](Cc1ccccc1)NC(=O)OC(C)(C)C)C(=O)NCc1ccccc1 [Example 62, BOC-PHE[CH2 NH]HIS(BOM)-STA-LEU-NHCH2 Ph] | 16
CCC(C)CNC(=O)/C=C/C(O)[C@H](Cc1ccccc1)NC(=O)[C@H](Cc1c[nH]cn1)NC(=O)[C@H](Cc1ccccc1)NC(=O)OC(C)(C)C (stereo partly shown) [Example 84, BOC-PHE-HIS-PHE[CHOHCH=CHCO]NHCH2 CH(CH3)CH2 CH3] | 1.4
CC(C)CC(=O)NC(CSC(Cc1ccccc1)C(=O)NC(CC(C)C)C(O)CC(=O)NC(CC(C)C)C(=O)NCc1ccccc1)Cc1ccccc1 (stereo not shown) [Example 39, 6-hydroxy-17-methyl-2,7-bis(2-methylpropyl)-4,9,15-trioxo-N,10,13-tris(phenylmethyl)-11-thia-3,8,14-triazaoctadecanamide] | 30
CC(C)CC(=O)N[C@@H](Cc1ccccc1)C(=O)N[C@@H](Cc1c[nH]cn1)C(=O)N[C@@H](CC1CCCCC1)C(O)CCC(=O)N[C@@H](CC(C)C)C(=O)NCc1ccccc1 (stereo partly shown) [Example 28] | 0.014
CC(C)CC(=O)N[C@@H](Cc1ccccc1)C(=O)N[C@@H](Cc1c[nH]cn1)C(=O)N[C@@H](CC1CCCCC1)C(O)CC(CC(C)C)C(=O)NCc1ccccc1 (stereo partly shown) [Example 78] | 0.24
CC(C)CC(NC(=O)CCC(=O)C(Cc1ccccc1)NC(=O)c1ccccc1)C(O)CC(=O)NC(C)C(=O)NC(CC(C)C)C(O)CC(=O)NCc1ccccc1 (stereo not shown) [Example 48] | 30
Cc1c(C)c(C)c(C[C@H](CN[C@@H](Cc2c[nH]cn2)C(=O)N[C@@H](CC(C)C)[C@@H](O)CC(=O)N[C@@H](CC(C)C)C(=O)NC2CCN(Cc3ccccc3)CC2)NC(=O)OC(C)(C)C)c(C)c1C [Example 61] | 30
CC(C)CC(=O)N[C@@H](Cc1ccccc1)C(=O)N[C@@H](Cc1c[nH]cn1)C(=O)N[C@@H](CC1CCCCC1)C(O)CC(CC(C)C)C(=O)NCc1cccc(CN)c1 (stereo partly shown) [Example 81] | 0.054
CC(C)C[C@H](NC(=O)C/C=C/[C@H](Cc1ccccc1)NC(=O)OC(C)(C)C)[C@@H](O)CC(=O)N[C@@H](C)C(=O)N[C@@H](CC(C)C)[C@@H](O)CC(=O)NCc1ccccc1 [Example 1, [5S-[5R*,6R*,9R*,13R*,14R*(E),20R*]]-5,13-dihydroxy-9-methyl-6,14-bis(2-methylpropyl)-3,8,11,16-tetraoxo-1-phenyl-20-(phenylmethyl)-2,7,10,15,21-pentaazadocos-18-en-22-oic acid, 1,1-dimethylethyl ester] | 8.2
CC(C)C[C@H](NC(=O)CCC(=O)C(Cc1ccccc1)NC(=O)OC(C)(C)C)[C@@H](O)CC(=O)N[C@@H](C)C(=O)N[C@@H](CC(C)C)[C@@H](O)CC(=O)NCc1ccccc1 (stereo partly drawn) [Example 50, 5,13-dihydroxy-9-methyl-6,14-bis(2-methylpropyl)-3,8,11,16,19-pentaoxo-1-phenyl-20-(phenylmethyl)-2,7,10,15,21-pentaazadocosan-22-oic acid, 1,1-dimethylethyl ester; (5S,7S,13S,14S,20RS)] | 30
CC(C)CC(=O)N[C@@H](Cc1ccccc1)C(=O)N[C@H](CN[C@@H](CC(C)C)[C@@H](O)CC(=O)N[C@@H](CC(C)C)C(=O)NCc1ccccc1)Cc1c[nH]cn1 [Example 66, 3,8,11,14-Tetraazaoctadecanamide, 6-hydroxy-10-(1H-imidazol-4-ylmethyl)-17-methyl-2,7-bis(2-methylpropyl)-4,12,15-triazo-N,13-bis(phenylmethyl)-, [2S-(2R*,6R*,7R*,10R*,13R*)]] | 3.5

— patent US4743585A (Warner-Lambert Company, priority 1986, dated 1988)
